Laboratory results from ChEMBL document CHEMBL1201862, “PubChem BioAssay data set” (2004).
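48-hour exposure; five concentrations; linearly interpolated endpoints. At the GI50, growth is halved.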 Active and inactive are the calls of the source. Cut-off read from the data, not from the text of the source: active = GI50 up to about 1.1 µM and inactive = higher.

Columns and labels:
Experiment in all cases: inhibition of tumour cell growth, NCI panel, 48 h
[1] = tested on: SF-268
[2] = tested on: COLO 205
[3] = tested on: NCI-H23
[4] = tested on: PC-3
[5] = tested on: OVCAR-4
[6] = tested on: NCI/ADR-RES
[7] = tested on: M14
[8] = tested on: RXF 393
[9] = tested on: LOX IMVI
[10] = tested on: ACHN
[11] = tested on: SF-295
[12] = tested on: K562
[13] = tested on: HOP-62
[14] = tested on: A498
[15] = tested on: SN12C
[16] = tested on: Hs-578T
[17] = tested on: HCC 2998
[18] = tested on: NCI-H460
[19] = tested on: HCT-116
[20] = tested on: MCF7

SMILES | GI50 [1] | GI50 [2] | GI50 [3] | GI50 [4] | GI50 [5] | GI50 [6] | GI50 [7] | GI50 [8] | GI50 [9] | GI50 [10] | GI50 [11] | GI50 [12] | GI50 [13] | GI50 [14] | GI50 [15] | GI50 [16] | GI50 [17] | GI50 [18] | GI50 [19] | GI50 [20]
Cc1c(C)c(S(=O)(=O)N(CCCCCN)OCCCN)c(C)c2c1OC(C)(C)CC2 | 10 µM (inactive) | 12.2 µM (inactive) | 14.6 µM (inactive) | 4.06 µM (inactive) | 3.96 µM (inactive) | 20.6 µM (inactive) | 27.7 µM (inactive) | 11.6 µM (inactive) | 5.4 µM (inactive) | 17.2 µM (inactive) | 17.4 µM (inactive) | 5.07 µM (inactive) | 8.05 µM (inactive) | 18.6 µM (inactive) | 16.6 µM (inactive) | 6.73 µM (inactive) | 2.27 µM (inactive) | 6.35 µM (inactive) | 5.98 µM (inactive) | 
COc1ccc2c(c1)OCC1Cc3cccc(OC)c3OC21 (stereo not given) | > 100 µM (inactive) | 41.6 µM (inactive) | 58.3 µM (inactive) | 35.6 µM (inactive) |  | 31.1 µM (inactive) | 96.2 µM (inactive) |  | 45.5 µM (inactive) |  | 64.6 µM (inactive) |  | > 100 µM (inactive) | > 100 µM (inactive) | > 100 µM (inactive) |  | 93.3 µM (inactive) |  | 45.1 µM (inactive) | 
COC(=O)[C@@H]1CN(C(C)=O)C(=O)N1C(=O)OCc1ccccc1 | 59.2 µM (inactive) | > 100 µM (inactive) | > 100 µM (inactive) | > 100 µM (inactive) | > 100 µM (inactive) | > 100 µM (inactive) | > 100 µM (inactive) | > 100 µM (inactive) | > 100 µM (inactive) | > 100 µM (inactive) | > 100 µM (inactive) | > 100 µM (inactive) | > 100 µM (inactive) | > 100 µM (inactive) | > 100 µM (inactive) | > 100 µM (inactive) | > 100 µM (inactive) | > 100 µM (inactive) | > 100 µM (inactive) | 
Cc1cc2ncc3c(=O)n(NS(=O)(=O)c4ccc(N)cc4)ccc3n2n1 | > 100 µM (inactive) | > 100 µM (inactive) | > 100 µM (inactive) | > 100 µM (inactive) | > 100 µM (inactive) |  | > 100 µM (inactive) |  | > 100 µM (inactive) | > 100 µM (inactive) | > 100 µM (inactive) |  | > 100 µM (inactive) | 70.8 µM (inactive) | > 100 µM (inactive) | > 100 µM (inactive) |  | > 100 µM (inactive) | > 100 µM (inactive) | > 100 µM (inactive)
COc1ccc(/C(Cl)=C(\C=O)c2cc(OC)c(OC)c(OC)c2)cc1OC | 23.8 µM (inactive) | 27.5 µM (inactive) | 12.3 µM (inactive) | 55.1 µM (inactive) | 24.3 µM (inactive) | 13.2 µM (inactive) | 56.4 µM (inactive) | > 100 µM (inactive) | 19.7 µM (inactive) | 26.3 µM (inactive) | 34.1 µM (inactive) | 25.7 µM (inactive) | 29.5 µM (inactive) | 37.9 µM (inactive) | 23.2 µM (inactive) | 27.5 µM (inactive) | 26.4 µM (inactive) | 18.5 µM (inactive) | 36.6 µM (inactive) | 
c1ccc(-c2nnc(CCCCCCCCc3nnc(-c4ccccc4)o3)o2)cc1 | > 100 µM (inactive) | > 100 µM (inactive) | > 100 µM (inactive) | > 100 µM (inactive) | > 100 µM (inactive) | > 100 µM (inactive) | > 100 µM (inactive) |  | 48.9 µM (inactive) | > 100 µM (inactive) | > 100 µM (inactive) | 34.7 µM (inactive) | 97.3 µM (inactive) | 16.1 µM (inactive) | > 100 µM (inactive) |  | < 0.01 µM (active) | 50.5 µM (inactive) | 55.6 µM (inactive) | 38.2 µM (inactive)
CCCCN(CCCC)CCC(O)c1cc(-c2ccc(C(F)(F)F)cc2)nc(-c2ccc(C(F)(F)F)cc2)c1 (stereo not given) | > 100 µM (inactive) | > 100 µM (inactive) | > 100 µM (inactive) | > 100 µM (inactive) | > 100 µM (inactive) | > 100 µM (inactive) | > 100 µM (inactive) |  | > 100 µM (inactive) | > 100 µM (inactive) | > 100 µM (inactive) | > 100 µM (inactive) | > 100 µM (inactive) | > 100 µM (inactive) | > 100 µM (inactive) |  | > 100 µM (inactive) | > 100 µM (inactive) | > 100 µM (inactive) | > 100 µM (inactive)
CO/N=C(\C(=O)Nn1cn[n+](CC(=O)[O-])c1)c1csc(N)n1 | > 10 µM (inactive) | > 10 µM (inactive) | > 10 µM (inactive) |  | > 10 µM (inactive) |  | > 10 µM (inactive) |  | > 10 µM (inactive) | > 10 µM (inactive) |  | > 10 µM (inactive) | > 10 µM (inactive) |  | > 10 µM (inactive) |  | > 10 µM (inactive) | > 10 µM (inactive) | > 10 µM (inactive) | > 10 µM (inactive)
N#Cc1c(-c2ccc([N+](=O)[O-])cc2)cc(-c2ccc(Nc3ccnc4cc(C(F)(F)F)ccc34)cc2)[nH]c1=O | > 100 µM (inactive) | 12.2 µM (inactive) | > 100 µM (inactive) | > 100 µM (inactive) | > 100 µM (inactive) | > 100 µM (inactive) | 80.9 µM (inactive) | > 100 µM (inactive) | > 100 µM (inactive) | > 100 µM (inactive) | > 100 µM (inactive) | > 100 µM (inactive) | > 100 µM (inactive) | > 100 µM (inactive) | > 100 µM (inactive) |  | > 100 µM (inactive) | > 100 µM (inactive) | 22.2 µM (inactive) | > 100 µM (inactive)
CO/C(=N\N=C\c1ccc(Cl)cc1Cl)c1ccncc1 | > 10 µM (inactive) | > 10 µM (inactive) | > 10 µM (inactive) | > 10 µM (inactive) | > 10 µM (inactive) | > 10 µM (inactive) | > 10 µM (inactive) | > 10 µM (inactive) | > 10 µM (inactive) | > 10 µM (inactive) | > 10 µM (inactive) | > 10 µM (inactive) | > 10 µM (inactive) |  | > 10 µM (inactive) |  |  | > 10 µM (inactive) | > 10 µM (inactive) | > 10 µM (inactive)
COC(=O)[C@@]12CCCC(=O)[C@@H]1[C@H]1CCC[C@H]12 | > 100 µM (inactive) | > 100 µM (inactive) | > 100 µM (inactive) | > 100 µM (inactive) | > 100 µM (inactive) | > 100 µM (inactive) | > 100 µM (inactive) | > 100 µM (inactive) | > 100 µM (inactive) | > 100 µM (inactive) | > 100 µM (inactive) | > 100 µM (inactive) | > 100 µM (inactive) |  | > 100 µM (inactive) |  | > 100 µM (inactive) | > 100 µM (inactive) | > 100 µM (inactive) | > 100 µM (inactive)
N#C/C(C(=O)NCc1ccccc1)=C(/N)N1CCCC1 | > 100 µM (inactive) | > 100 µM (inactive) | > 100 µM (inactive) | > 100 µM (inactive) | > 100 µM (inactive) | > 100 µM (inactive) | > 100 µM (inactive) | > 100 µM (inactive) | > 100 µM (inactive) | > 100 µM (inactive) | > 100 µM (inactive) | > 100 µM (inactive) | > 100 µM (inactive) | 94.8 µM (inactive) | > 100 µM (inactive) | > 100 µM (inactive) | > 100 µM (inactive) | > 100 µM (inactive) | > 100 µM (inactive) | 
Nc1nc(SCc2ccccc2Cl)c2ncn(C3OC(CO)C(O)C3O)c2n1 (stereo not given) | 80.4 µM (inactive) | > 100 µM (inactive) | > 100 µM (inactive) |  | 74.3 µM (inactive) |  | > 100 µM (inactive) | 28.6 µM (inactive) | 68.9 µM (inactive) | > 100 µM (inactive) | 59.4 µM (inactive) | 57 µM (inactive) | > 100 µM (inactive) | 87.3 µM (inactive) | > 100 µM (inactive) |  | > 100 µM (inactive) | > 100 µM (inactive) | 42.4 µM (inactive) | 
Cc1cc(Cl)ccc1C(=O)c1ccc2ccccc2c1C(=O)O | > 100 µM (inactive) | > 100 µM (inactive) | > 100 µM (inactive) | > 100 µM (inactive) | > 100 µM (inactive) | > 100 µM (inactive) | > 100 µM (inactive) | 39.6 µM (inactive) |  | > 100 µM (inactive) | 98.9 µM (inactive) | > 100 µM (inactive) |  | > 100 µM (inactive) |  |  | 71.6 µM (inactive) | > 100 µM (inactive) | > 100 µM (inactive) | 41.5 µM (inactive)
N#Cc1c(NN)nc(NN)c(C#N)c1-c1ccccc1 | > 100 µM (inactive) | > 100 µM (inactive) | > 100 µM (inactive) |  | > 100 µM (inactive) |  | > 100 µM (inactive) | 96.6 µM (inactive) | > 100 µM (inactive) | > 100 µM (inactive) | > 100 µM (inactive) | > 100 µM (inactive) | > 100 µM (inactive) | > 100 µM (inactive) | > 100 µM (inactive) |  | > 100 µM (inactive) | > 100 µM (inactive) | > 100 µM (inactive) | 
Cc1cc(C)c(OC(=O)Nc2cccc3ccccc23)c(-c2ccccc2)c1 | 12.6 µM (inactive) | 50.1 µM (inactive) | 30.5 µM (inactive) | 15.9 µM (inactive) | 31.3 µM (inactive) | 26.9 µM (inactive) | 29.1 µM (inactive) |  | 24.8 µM (inactive) | 23.7 µM (inactive) | 48.8 µM (inactive) | 41.8 µM (inactive) | 65.8 µM (inactive) |  | 38.2 µM (inactive) | 25 µM (inactive) | 27.7 µM (inactive) | 47.9 µM (inactive) | 34.9 µM (inactive) | 52.5 µM (inactive)
